Reference: ChEMBL document CHEMBL1121780, “Synthesis and antiarrhythmic activity of new benzofuran derivatives” (J Med Chem, 1981)
“And” between values parts separate entries of the source, which are not always exact repeats. Identical values can stand only once. The source made the active and inactive calls. No cut-off for these calls is given here.

Key:
Canis familiaris [1] = organism: Canis familiaris; test: Duration for the sinus rhythm recovery was measured; format: functional, Canis lupus familiaris
Canis familiaris [2] = test: Activity against ouabain-induced ventricular arrhythmia was measured as percent of sinus rhythm recovery at dose of 10 mg/kg iv; format: functional, Canis lupus familiaris, Cardiac ventricle
[3] = Toxicity was estimated in mouse as LD50 by intravenous administration; LD50 = 200(30%); format: organism-based; details: in vivo
Canis familiaris [4] = test: Activity against harris coronary ligation induced ventricular arrhythmia was measured as percent of final sinus complexes after dose 2 mg/kg, iv; format: functional, Canis lupus familiaris, Cardiac ventricle
Canis familiaris [5] = organism: Canis familiaris; test: Duration for the antiarrhythmic activity was measured; 10-60; format: functional, Canis lupus familiaris, Heart
Canis familiaris [6] = test: Activity against harris coronary ligation induced ventricular arrhythmia was measured as percent of initial sinus complexes after dose 2 mg/kg iv; format: organism-based, Canis lupus familiaris, Cardiac ventricle; set-up: dose 2 mg/kg, route intravenous; details: dog, in vivo
Canis familiaris [7] = test: Activity against ouabain-induced ventricular arrhythmia was measured as percent of sinus rhythm recovery at dose of 1 mg/kg iv; format: functional, Canis lupus familiaris, Cardiac ventricle
[8] = Toxicity estimated in mouse as LD50 by intravenous administration; format: organism-based; details: in vivo
Canis familiaris [9] = test: Activity against ouabain-induced ventricular arrhythmia was measured as percent of sinus rhythm recovery at the dose of 2 mg/kg iv; format: functional, Canis lupus familiaris, Cardiac ventricle
Canis familiaris [10] = test: Activity against ouabain-induced ventricular arrhythmia was measured as percent of sinus rhythm recovery at dose of 8 mg/kg iv; format: functional, Canis lupus familiaris, Cardiac ventricle
Canis familiaris [11] = organism: Canis familiaris; test: Duration for the antiarrhythmic activity was measured; format: functional, Canis lupus familiaris, Heart
Canis familiaris [12] = test: Activity against harris coronary ligation induced ventricular arrhythmia was measured as percent of initial sinus complexes after dose 1 mg/kg iv; format: functional, Canis lupus familiaris, Cardiac ventricle
Canis familiaris [13] = test: Activity against harris coronary ligation induced ventricular arrhythmia was measured as percent of final sinus complexes after dose 1 mg/kg iv; format: functional, Canis lupus familiaris, Cardiac ventricle
Canis familiaris [14] = test: Activity against harris coronary ligation induced ventricular arrhythmia was measured as percent of final sinus complexes after dose 5 mg/kg iv; format: functional, Canis lupus familiaris, Cardiac ventricle
Canis familiaris [15] = test: Activity against harris coronary ligation induced ventricular arrhythmia was measured as percent of initial sinus complexes after dose 5 mg/kg iv; format: functional, Canis lupus familiaris, Cardiac ventricle
Canis familiaris [16] = test: Activity against harris coronary ligation induced ventricular arrhythmia was measured as percent of final sinus complexes after dose 25 mg/kg po; format: functional, Canis lupus familiaris, Cardiac ventricle
Canis familiaris [17] = test: Activity against harris coronary ligation induced ventricular arrhythmia was measured as percent of initial sinus complexes after dose 25 mg/kg po; format: functional, Canis lupus familiaris, Cardiac ventricle
Canis familiaris [18] = test: Activity against ouabain-induced ventricular arrhythmia was measured as percent of sinus rhythm recovery at dose of 5 mg/kg iv; format: functional, Canis lupus familiaris, Cardiac ventricle
Canis familiaris [19] = test: Activity against ouabain-induced ventricular arrhythmia was measured as percent of sinus rhythm recovery at dose of 6 mg/kg iv; format: functional, Canis lupus familiaris, Cardiac ventricle
Canis familiaris [20] = test: Activity against ouabain-induced ventricular arrhythmia was measured as percent of sinus rhythm recovery at dose of 2.5 mg/kg iv; format: functional, Canis lupus familiaris, Cardiac ventricle
Canis familiaris [21] = test: Activity against harris coronary ligation induced ventricular arrhythmia was measured as percent of initial sinus complexes after dose mg/kg, iv=6; Inactive; format: functional, organism-based; details: Canis lupus familiaris; Cardiac ventricle
Canis familiaris [22] = test: Activity against harris coronary ligation induced ventricular arrhythmia was measured as percent of final sinus complexes after dose 10 mg/kg iv; format: functional, Canis lupus familiaris, Cardiac ventricle
Canis familiaris [23] = test: Activity against harris coronary ligation induced ventricular arrhythmia was measured as percent of initial sinus complexes after dose mg/kg, iv=12.5; format: functional, Canis lupus familiaris, Cardiac ventricle
Canis familiaris [24] = test: Activity against harris coronary ligation induced ventricular arrhythmia was measured as percent of initial sinus complexes after dose 10 mg/kg iv; format: functional, Canis lupus familiaris, Cardiac ventricle
Canis familiaris [25] = test: Activity against harris coronary ligation induced ventricular arrhythmia was measured as percent of final sinus complexes after dose mg/kg, iv; format: functional, Canis lupus familiaris, Cardiac ventricle
Canis familiaris [26] = test: Activity against harris coronary ligation induced ventricular arrhythmia was measured as percent of initial sinus complexes after dose mg/kg, iv=25; format: functional, Canis lupus familiaris, Cardiac ventricle
Canis familiaris [27] = test: Activity against harris coronary ligation induced ventricular arrhythmia was measured as percent of final sinus complexes after dose 5 mg/kg, iv; format: functional, Canis lupus familiaris, Cardiac ventricle
Canis familiaris [28] = test: Activity against harris coronary ligation induced ventricular arrhythmia was measured as percent of initial sinus complexes after dose 5 mg/kg, iv; format: functional, Canis lupus familiaris, Cardiac ventricle
Canis familiaris [29] = test: Activity against harris coronary ligation induced ventricular arrhythmia was measured as percent of initial sinus complexes after dose 10 mg/kg, iv; format: functional, Canis lupus familiaris, Cardiac ventricle
Canis familiaris [30] = test: Activity against harris coronary ligation induced ventricular arrhythmia was measured as percent of final sinus complexes after dose 10 mg/kg, iv; format: functional, Canis lupus familiaris, Cardiac ventricle
Canis familiaris [31] = test: Activity against harris coronary ligation induced ventricular arrhythmia was measured as percent of final sinus complexes after dose 25 mg/kg, po; format: functional, Canis lupus familiaris, Cardiac ventricle
Canis familiaris [32] = test: Activity against harris coronary ligation induced ventricular arrhythmia was measured as percent of initial sinus complexes after dose 2.5 mg/kg, iv; format: functional, Canis lupus familiaris, Cardiac ventricle
Canis familiaris [33] = test: Activity against harris coronary ligation induced ventricular arrhythmia was measured as percent of initial sinus complexes after dose 6.25 mg/kg, po; format: functional, Canis lupus familiaris, Cardiac ventricle
Canis familiaris [34] = test: Activity against harris coronary ligation induced ventricular arrhythmia was measured as percent of final sinus complexes after dose 2.5 mg/kg, iv; format: functional, Canis lupus familiaris, Cardiac ventricle
Canis familiaris [35] = test: Activity against ouabain-induced ventricular arrhythmia was measured as percent of sinus rhythm recovery at dose of 2 mg/kg iv; format: functional, Canis lupus familiaris, Cardiac ventricle
Canis familiaris [36] = test: Activity against harris coronary ligation induced ventricular arrhythmia was measured as percent of initial sinus complexes after dose 25 mg/kg, po; format: functional, Canis lupus familiaris, Cardiac ventricle
Canis familiaris [37] = test: Activity against harris coronary ligation induced ventricular arrhythmia was measured as percent of final sinus complexes after dose 12.5 mg/kg, po; format: functional, Canis lupus familiaris, Cardiac ventricle
Canis familiaris [38] = test: Activity against harris coronary ligation induced ventricular arrhythmia was measured as percent of final sinus complexes after dose 6.25 mg/kg, po; format: functional, Canis lupus familiaris, Cardiac ventricle
Canis familiaris [39] = test: Activity against harris coronary ligation induced ventricular arrhythmia was measured as percent of initial sinus complexes after dose 12.5 mg/kg, po; format: functional, Canis lupus familiaris, Cardiac ventricle

`COc1c(NC(C)=O)c(OCCN2CCN(C)CC2)c(OC)c2occc12` gave a Duration (Canis familiaris [1]) of less than 30 min, an SRR (Canis familiaris [2]) of 66% and an LD50 [3] of 200 mg/kg.
For `CNC(=O)Nc1c(OCCN(C)C)c(OC)c2occc2c1OC`, the FSC (Canis familiaris [4]) was 20%, the Duration (Canis familiaris [5]) was 10 min and the ISC (Canis familiaris [6]) was 5%. The Duration (Canis familiaris [1]) was 30 min, the SRR (Canis familiaris [7]) was 100% and the LD50 [8] was 100 mg/kg.
`CNC(=O)Nc1c(OCCN2CCCCC2)cc2occc2c1OC` showed an SRR (Canis familiaris [9]) of 100% and an LD50 [8] of 100 mg/kg.
With `CNC(=O)Nc1c(OC)c2c(c(OC)c1OCCN1CCCCC1)OCC2` the Duration (Canis familiaris [1]) was less than 30 min, the LD50 [8] was 180 mg/kg and the SRR (Canis familiaris [10]) was 100%.
With `COc1c(NC(=O)OC(C)C)c(OCCN2CCCCC2)c(OC)c2occc12` the Duration (Canis familiaris [1]) was greater than 100 min, the SRR (Canis familiaris [7]) was 100% and the Duration (Canis familiaris [11]) was 10 min. For the same molecule, the LD50 [8] was 10 mg/kg, the ISC (Canis familiaris [12]) was 30% and the FSC (Canis familiaris [13]) was 50%.
For `CC(C)N(CCC(C(N)=O)(c1ccccc1)c1ccccn1)C(C)C` (stereo not given) [DISOPYRAMIDE], the FSC (Canis familiaris [14]) was 100%, the ISC (Canis familiaris [15]) was 19% and the Duration (Canis familiaris [1]) was 25 min. For the same molecule, the FSC (Canis familiaris [16]) was 100%, the Duration (Canis familiaris [11]) was 60 min and 180 min and the LD50 [8] was 60 mg/kg. For the same molecule, the ISC (Canis familiaris [17]) was 1% and the SRR (Canis familiaris [18]) was 100%.
In the case of `COc1c(NC(C)=O)c(OCCNC(C)C)c(OC)c2occc12`, the Duration (Canis familiaris [1]) is reported as less than 30 min, the SRR (Canis familiaris [19]) is reported as 33% and the LD50 [8] is reported as 88 mg/kg.
For `COc1c(NC(C)=O)c(OCCN2CCCCC2)c(OC)c2occc12`, the SRR (Canis familiaris [20]) was 100%, the ISC (Canis familiaris [21]) was “inactive” and the Duration (Canis familiaris [1]) was greater than 50 min. The LD50 [8] was 52 mg/kg.
`C=C[C@H]1CN2CC[C@H]1C[C@@H]2[C@@H](O)c1ccnc2ccc(OC)cc12` [QUINIDINE] gave an FSC (Canis familiaris [22]) of 67%, an ISC (Canis familiaris [23]) of 9% and an ISC (Canis familiaris [24]) of 5%. The Duration (Canis familiaris [1]) was 60 min, the SRR (Canis familiaris [2]) was 50% and the Duration (Canis familiaris [11]) was >90 min and 120 min and 240 min. The LD50 [8] was 89 mg/kg, the FSC (Canis familiaris [25]) was 25% and 56% and the ISC (Canis familiaris [26]) was 9%.
For `CNC(=O)Nc1c(OCCN2CCN(C)CC2)c(OC)c2occc2c1OC`, the Duration (Canis familiaris [1]) was 120 min, the FSC (Canis familiaris [27]) was 50% and the ISC (Canis familiaris [28]) was 1%. For the same molecule, the Duration (Canis familiaris [11]) was 30 min and <30 min, the ISC (Canis familiaris [29]) was 18% and the LD50 [8] was 145 mg/kg. For the same molecule, the FSC (Canis familiaris [30]) was 98% and the SRR (Canis familiaris [18]) was 100%.
`CNC(=O)Nc1c(OCCN2CCCCC2)c(OC)c2occc2c1OC` [MUROCAINIDE] showed an FSC (Canis familiaris [31]) of 98%, an ISC (Canis familiaris [32]) of 3% and an ISC (Canis familiaris [33]) of 1%. The FSC (Canis familiaris [34]) was 45%, the SRR (Canis familiaris [35]) was 100% and the Duration (Canis familiaris [1]) was greater than 60 min. For the same molecule, the FSC (Canis familiaris [27]) was 85%, the ISC (Canis familiaris [36]) was 13% and the ISC (Canis familiaris [28]) was 14%. The FSC (Canis familiaris [37]) was 90%, the FSC (Canis familiaris [38]) was 14% and the LD50 [8] was 50 mg/kg. The ISC (Canis familiaris [39]) was 5%.
